Values of other authors as cited in US20160375061A1, “COMPOSITION INVOLVED IN REGULATING ENERGY CYCLE, INFLAMMATION AND INSULIN RESISTANCE DYSFUNCTIONS, AND USE THEREOF PARTICULARLY IN CARDIOMETABOLIC DISEASES” (INTERNATIONAL NUTRITION RESEARCH COMPANY, priority 2013, published 2016).

Settings: mutation of the gene transporter OCT1; normal daily doses 1 to 3 g/day

CN(C)C(=N)N=C(N)N [metformin]
concentrations of metformin (saturation): 30 ± 19 ng/mL
